Data published in patent US8524773B2, “Utilization of dialkylfumarates” (Biogen Idec International GmbH, priority 1998, dated 2013).
Structures can show the parent of a compound that is named as a salt.

How the values were obtained:
haemagglutination [1] = experiment: in vitro haemagglutination; settings: compared with cyclosporine
haemagglutination [2] = experiment: in vivo haemagglutination; settings: compared with cyclosporine
Ehrlich ascites tumour = settings: mice; cited from earlier work
[3] = test system: human mononuclear cells of periphere blood (PBMC cells); experiment: endotoxin-stimulated TNF-α secretion in PBMC cells; assay type: cell-based
isolated monocytes = experiment: endotoxin-stimulated TNF-α secretion in isolated monocytes; assay type: cell-based, human

SMILES	effect on in vitro haemagglutination (haemagglutination [1])	effect on in vivo haemagglutination (haemagglutination [2])	growth of the Ehrlich ascites tumour (Ehrlich ascites tumour)	endotoxin-stimulated TNF-α secretion [3]	endotoxin-stimulated TNF-α secretion (isolated monocytes)
O=C(O)/C=C/C(=O)O [fumaric acid]	comparable to that of cyclosporine	comparable to that of cyclosporine	inhibits the growth	–	–
COC(=O)/C=C/C(=O)O [methyl hydrogen fumarate]	–	–	–	initially increases	initially increases
